Reference: PMC7156458, “Synthetic biology based construction of biological activity-related library of fungal decalin-containing diterpenoid pyrones” (Nature Communications, 2020)
Where two headings read alike, the source gives them in different places.

Assays:
[1] = cytotoxicity in Drosophila l(2)mbn cells; assay type: cell-based; conditions: Drosophila
Method: (§1) We screened the DDPs on the Drosophila assay system for cytotoxicity, inhibitory activity of innate immune signalling and insecticidal activity. The cytotoxicity of the DDPs was evaluated using two cell lines, embryonic macrophage-derived DL1 cells[58]–[60] and larval blood cell-derived l(2)mbn cells, and their IC50 values are listed in Supplementary Table 23.

[2] = test system: l(2)mbn cells; assay: cytotoxicity in Drosophila l(2)mbn cells; assay type: cell-based; conditions: for Luminescence Raw1: replicate 1; for Luminescence Raw2: replicate 2; for % viability, viability 2: replicate 2, relative to DMSO 1%; for % viability, viability 1: replicate 1, relative to DMSO 1%
Method: as §1

[3] = l(2)mbn cells (larval blood cell-derived), replicate 1, relative to DMSO 1%, read-out: % viability, viability 1
[4] = l(2)mbn cells (larval blood cell-derived), replicate 2, relative to DMSO 1%, read-out: % viability, viability 2
[5] = Drosophila melanogaster, cytotoxicity, average of two replicates, read-out: IC50 Average
[6] = Drosophila melanogaster, cytotoxicity, average±SEM, read-out: IC50
[7] = Drosophila melanogaster, cytotoxicity, replicate 1, read-out: IC50 (1)
[8] = Drosophila melanogaster, cytotoxicity, replicate 2, read-out: IC50 (2)
[9] = replicate 1, relative to DMSO 1%, read-out: % viability, viability 1
[10] = replicate 2, relative to DMSO 1%, read-out: % viability, viability 2

SMILES: C=C1CCC2C(C)(CCC=C(C)C)C(O)CCC2(C)C1Cc1c(OC)oc(CO)c(C)c1=O (stereo not shown) [Compound 12]
- viability at 0.04 µM [1, 3]: 139%
- viability at 0.04 µM [1, 4]: 135%
- viability at 0.2 µM [1, 3]: 156%
- viability at 0.2 µM [1, 4]: 139%
- viability at 1 µM [1, 3]: 112%
- viability at 1 µM [1, 4]: 136%
- viability at 4 µM [1, 3]: 16.2%
- viability at 4 µM [1, 4]: 12.9%
- viability at 10 µM [1, 3]: 7.07%
- viability at 10 µM [1, 4]: 6.84%
- viability at 20 µM [1, 3]: 7.38%
- viability at 20 µM [1, 4]: 6.31%
- Luminescence Raw1 ([2]; 0.04 µM): 3578369
- Luminescence Raw2 ([2]; 0.04 µM): 3458604
- Luminescence Raw1 ([2]; 0.2 µM): 4007302
- Luminescence Raw2 ([2]; 0.2 µM): 3578369
- Luminescence Raw1 ([2]; 1 µM): 2865222
- Luminescence Raw2 ([2]; 1 µM): 3493234
- Luminescence Raw1 ([2]; 4 µM): 415037
- Luminescence Raw2 ([2]; 4 µM): 331384
- Luminescence Raw1 ([2]; 10 µM): 181387
- Luminescence Raw2 ([2]; 10 µM): 175618
- Luminescence Raw1 ([2]; 20 µM): 189320
- Luminescence Raw2 ([2]; 20 µM): 161917
- IC50 [2, 5]: 3290 nM
- IC50 [2, 6]: 3290 ± 160 nM
- IC50 [2, 7]: 3130 nM
- IC50 [2, 8]: 3450 nM

SMILES: C=C1CCC2C(C)(CCC=C(C)C)C(O)CCC2(C)C1Cc1c(OC)oc(C)c(C(=O)OC)c1=O (stereo not shown) [Compound 14]
- viability at 0.04 µM [1, 3]: 137%
- viability at 0.04 µM [1, 4]: 114%
- viability at 0.2 µM [1, 3]: 136%
- viability at 0.2 µM [1, 4]: 147%
- viability at 1 µM [1, 3]: 131%
- viability at 1 µM [1, 4]: 146%
- viability at 4 µM [1, 3]: 18.5%
- viability at 4 µM [1, 4]: 16%
- viability at 10 µM [1, 3]: 10.1%
- viability at 10 µM [1, 4]: 9.05%
- viability at 20 µM [1, 3]: 7.49%
- viability at 20 µM [1, 4]: 6.87%
- Luminescence Raw1 ([2]; 0.04 µM): 3506221
- Luminescence Raw2 ([2]; 0.04 µM): 2917163
- Luminescence Raw1 ([2]; 0.2 µM): 3483495
- Luminescence Raw2 ([2]; 0.2 µM): 3765235
- Luminescence Raw1 ([2]; 1 µM): 3358321
- Luminescence Raw2 ([2]; 1 µM): 3748640
- Luminescence Raw1 ([2]; 4 µM): 473811
- Luminescence Raw2 ([2]; 4 µM): 410710
- Luminescence Raw1 ([2]; 10 µM): 260351
- Luminescence Raw2 ([2]; 10 µM): 232227
- Luminescence Raw1 ([2]; 20 µM): 192204
- Luminescence Raw2 ([2]; 20 µM): 176340
- IC50 [2, 5]: 3740 nM
- IC50 [2, 6]: 3740 ± 140 nM
- IC50 [2, 7]: 3600 nM
- IC50 [2, 8]: 3880 nM

SMILES: C=C1CCC2C3(C)CC(C=C(C)C)OC3CCC2(C)C1Cc1c(OC)oc(C)c(C)c1=O (stereo not shown) [Compound 23]
- viability at 0.04 µM [1, 3]: 122%
- viability at 0.04 µM [1, 4]: 135%
- viability at 0.2 µM [1, 3]: 126%
- viability at 0.2 µM [1, 4]: 141%
- viability at 1 µM [1, 3]: 44.7%
- viability at 1 µM [1, 4]: 72.6%
- viability at 4 µM [1, 3]: 8.9%
- viability at 4 µM [1, 4]: 9.14%
- viability at 10 µM [1, 3]: 7.01%
- viability at 10 µM [1, 4]: 6.89%
- viability at 20 µM [1, 3]: 6.91%
- viability at 20 µM [1, 4]: 6.4%
- Luminescence Raw1 ([2]; 0.04 µM): 3121216
- Luminescence Raw2 ([2]; 0.04 µM): 3467512
- Luminescence Raw1 ([2]; 0.2 µM): 3228350
- Luminescence Raw2 ([2]; 0.2 µM): 3607479
- Luminescence Raw1 ([2]; 1 µM): 1147296
- Luminescence Raw2 ([2]; 1 µM): 1863873
- Luminescence Raw1 ([2]; 4 µM): 228513
- Luminescence Raw2 ([2]; 4 µM): 234642
- Luminescence Raw1 ([2]; 10 µM): 179837
- Luminescence Raw2 ([2]; 10 µM): 176952
- Luminescence Raw1 ([2]; 20 µM): 177313
- Luminescence Raw2 ([2]; 20 µM): 164332
- IC50 [2, 5]: 1580 nM
- IC50 [2, 6]: 1580 ± 350 nM
- IC50 [2, 7]: 1230 nM
- IC50 [2, 8]: 1920 nM

SMILES: C=C1CCC2C(C)(CC(=O)C=C(C)C)C(O)CCC2(C)C1Cc1c(OC)oc(CO)c(C)c1=O (stereo not shown) [Compound 19]
- viability at 0.04 µM [1, 3]: 154%
- viability at 0.04 µM [1, 4]: 105%
- viability at 0.2 µM [1, 3]: 131%
- viability at 0.2 µM [1, 4]: 120%
- viability at 1 µM [1, 3]: 128%
- viability at 1 µM [1, 4]: 131%
- viability at 4 µM [1, 3]: 125%
- viability at 4 µM [1, 4]: 116%
- viability at 10 µM [1, 3]: 104%
- viability at 10 µM [1, 4]: 136%
- viability at 20 µM [1, 3]: 115%
- viability at 20 µM [1, 4]: 117%
- Luminescence Raw1 ([2]; 0.04 µM): 3944169
- Luminescence Raw2 ([2]; 0.04 µM): 2684872
- Luminescence Raw1 ([2]; 0.2 µM): 3351106
- Luminescence Raw2 ([2]; 0.2 µM): 3081647
- Luminescence Raw1 ([2]; 1 µM): 3286175
- Luminescence Raw2 ([2]; 1 µM): 3371307
- Luminescence Raw1 ([2]; 4 µM): 3215834
- Luminescence Raw2 ([2]; 4 µM): 2985337
- Luminescence Raw1 ([2]; 10 µM): 2665756
- Luminescence Raw2 ([2]; 10 µM): 3480969
- Luminescence Raw1 ([2]; 20 µM): 2956119
- Luminescence Raw2 ([2]; 20 µM): 3004455
- IC50 [2, 6]: > 20000 nM

SMILES: C=C1CCC2C(C)(CC(=O)C=C(C)C)C(O)CCC2(C)C1Cc1c(OC)oc(C)c(C)c1=O (stereo not shown) [Compound 25]
- viability at 0.04 µM [1, 3]: 124%
- viability at 0.04 µM [1, 4]: 126%
- viability at 0.2 µM [1, 3]: 130%
- viability at 0.2 µM [1, 4]: 134%
- viability at 1 µM [1, 3]: 121%
- viability at 1 µM [1, 4]: 140%
- viability at 4 µM [1, 3]: 137%
- viability at 4 µM [1, 4]: 148%
- viability at 10 µM [1, 3]: 125%
- viability at 10 µM [1, 4]: 136%
- viability at 20 µM [1, 3]: 87.1%
- viability at 20 µM [1, 4]: 97.2%
- Luminescence Raw1 ([2]; 0.04 µM): 3193720
- Luminescence Raw2 ([2]; 0.04 µM): 3243139
- Luminescence Raw1 ([2]; 0.2 µM): 3343782
- Luminescence Raw2 ([2]; 0.2 µM): 3450197
- Luminescence Raw1 ([2]; 1 µM): 3097409
- Luminescence Raw2 ([2]; 1 µM): 3603150
- Luminescence Raw1 ([2]; 4 µM): 3528838
- Luminescence Raw2 ([2]; 4 µM): 3786770
- Luminescence Raw1 ([2]; 10 µM): 3209953
- Luminescence Raw2 ([2]; 10 µM): 3480138
- Luminescence Raw1 ([2]; 20 µM): 2234271
- Luminescence Raw2 ([2]; 20 µM): 2495041
- IC50 [2, 6]: > 20000 nM

SMILES: C=C1CC[C@@H]2[C@](C)(CC[C@H]3O[C@H](C=C(C)C)C[C@@]23C)[C@@H]1Cc1c(O)c(C)c(C)oc1=O [Compound 10, higginsianin A]
- viability at 0.04 µM [1, 3]: 113%
- viability at 0.04 µM [1, 4]: 127%
- viability at 0.2 µM [1, 3]: 108%
- viability at 0.2 µM [1, 4]: 125%
- viability at 1 µM [1, 3]: 20.3%
- viability at 1 µM [1, 4]: 41.9%
- viability at 4 µM [1, 3]: 7.39%
- viability at 4 µM [1, 4]: 9.05%
- viability at 10 µM [1, 3]: 6.87%
- viability at 10 µM [1, 4]: 7.85%
- viability at 20 µM [1, 3]: 5.83%
- viability at 20 µM [1, 4]: 6.46%
- Luminescence Raw1 ([2]; 0.04 µM): 2899849
- Luminescence Raw2 ([2]; 0.04 µM): 3256235
- Luminescence Raw1 ([2]; 0.2 µM): 2762422
- Luminescence Raw2 ([2]; 0.2 µM): 3200684
- Luminescence Raw1 ([2]; 1 µM): 521407
- Luminescence Raw2 ([2]; 1 µM): 1075282
- Luminescence Raw1 ([2]; 4 µM): 189680
- Luminescence Raw2 ([2]; 4 µM): 232227
- Luminescence Raw1 ([2]; 10 µM): 176340
- Luminescence Raw2 ([2]; 10 µM): 201579
- Luminescence Raw1 ([2]; 20 µM): 149658
- Luminescence Raw2 ([2]; 20 µM): 165883
- IC50 [2, 5]: 630 nM
- IC50 [2, 6]: 630 ± 100 nM
- IC50 [2, 7]: 529 nM
- IC50 [2, 8]: 734 nM

SMILES: C=C1CCC2C(C)(CCC=C(C)C)C(O)CCC2(C)C1Cc1c(OC)oc(C)c(C)c1=O (stereo not shown) [Compound 11]
- viability at 0.04 µM [1, 9]: 78.2%
- viability at 0.2 µM [1, 9]: 91.6%
- viability at 0.2 µM [1, 10]: 70.9%
- viability at 20 µM [1, 9]: 2.02%
- viability at 20 µM [1, 10]: 2.72%
- Luminescence Raw1 ([2]; 0.04 µM): 4909467
- Luminescence Raw2 ([2]; 0.04 µM): 3629794
- % viability, viability 2 ([2]; 0.04 µM): 57.8063%
- Luminescence Raw1 ([2]; 0.2 µM): 5752008
- Luminescence Raw2 ([2]; 0.2 µM): 4449089
- Luminescence Raw1 ([2]; 1 µM): 2597064
- % viability, viability 1 ([2]; 1 µM): 41.3596%
- Luminescence Raw2 ([2]; 1 µM): 1297263
- % viability, viability 2 ([2]; 1 µM): 20.6596%
- Luminescence Raw1 ([2]; 4 µM): 133995
- % viability, viability 1 ([2]; 4 µM): 2.134%
- Luminescence Raw2 ([2]; 4 µM): 142288
- % viability, viability 2 ([2]; 4 µM): 2.266%
- Luminescence Raw1 ([2]; 10 µM): 107674
- % viability, viability 1 ([2]; 10 µM): 1.715%
- Luminescence Raw2 ([2]; 10 µM): 99742
- % viability, viability 2 ([2]; 10 µM): 1.588%
- Luminescence Raw1 ([2]; 20 µM): 126784
- Luminescence Raw2 ([2]; 20 µM): 170772
- IC50 ([2]; cytotoxicity, average±SEM): 470 ± 210 nM
- IC50 ([2]; read-out: IC50 (1), cytotoxicity, replicate 1): 681 nM
- IC50 ([2]; read-out: IC50 (2), cytotoxicity, replicate 2): 259 nM
- IC50 ([2]; read-out: IC50 Average, cytotoxicity, average of two replicates): 470 nM
